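How tested: cells in 96-well plates exposed to compound for 48 hours at five concentrations. GI50 marks 50% less growth.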 The source made the active and inactive calls. Cut-off read from the data, not from the text of the source: active = GI50 up to about 1.1 µM and inactive = higher.
Key:
Assay in all cases: growth of human tumour cells (NCI), 48 h
[1] = tested on: HCT-116
[2] = tested on: SNB-19
[3] = tested on: Malme-3M
[4] = tested on: HOP-62
[5] = tested on: HOP-92
[6] = tested on: SK-MEL-28
[7] = tested on: SW-620
[8] = tested on: SNB-75
[9] = tested on: SK-MEL-5
[10] = tested on: SF-268
[11] = tested on: M14
[12] = tested on: NCI-H226
[13] = tested on: CAKI-1
[14] = tested on: A549
[15] = tested on: 786-0
[16] = tested on: SK-OV-3
[17] = tested on: COLO 205

Measured: GI50

COc1ccc2nc3cc(Cl)ccc3c(Sc3ccc([N+](=O)[O-])cc3)c2c1
inactive: [1] > 10 µM | [2] > 10 µM | [3] > 10 µM | [4] > 10 µM | [5] > 10 µM | [6] > 10 µM | [7] > 10 µM | [8] 34.1 µM | [9] > 10 µM | [10] > 10 µM | [11] > 10 µM | [12] > 10 µM | [13] > 10 µM | [14] > 10 µM | [15] > 10 µM | [16] > 10 µM | [17] > 10 µM

CCOC(=O)/C(=C\c1ccc[nH]1)C(=O)c1ccccc1
inactive: [1] > 100 µM | [2] > 100 µM | [3] > 100 µM | [4] > 100 µM | [5] 22.6 µM | [6] > 100 µM | [7] 52.7 µM | [8] 13.9 µM | [9] > 100 µM | [10] 91 µM | [11] > 100 µM | [12] > 100 µM | [13] > 100 µM | [14] > 100 µM | [15] > 100 µM | [16] > 100 µM | [17] > 100 µM

c1ccc([P+](CCC[P+](c2ccccc2)(c2ccccc2)c2ccccc2)(c2ccccc2)c2ccccc2)cc1
inactive: [1] 20.1 µM | [2] 16.3 µM | [3] 70.8 µM | [4] 49.3 µM | [5] 20.1 µM | [6] 33.5 µM | [7] 36.7 µM | [8] 31.8 µM | [9] 20.2 µM | [10] 40.4 µM | [11] 71.9 µM | [12] 23.6 µM | [13] > 100 µM | [14] 34 µM | [15] > 100 µM | [16] > 100 µM | [17] 21.8 µM

COc1ccccc1NC(=O)C1=C(C)NC(C)=C(C(=O)Nc2ccccc2OC)C1c1cccc2ccccc12
inactive: [1] 23.8 µM | [2] 53 µM | [3] 38.6 µM | [5] 1.38 µM | [6] 62.7 µM | [7] > 100 µM | [8] 14.3 µM | [9] 34.4 µM | [10] 29.4 µM | [11] > 100 µM | [12] 50.7 µM | [13] 68.1 µM | [14] 21.9 µM | [15] > 100 µM | [16] > 100 µM | [17] > 100 µM

O=C(Cc1nc2ccccc2c(=O)n1-c1c(Cl)cccc1Cl)c1ccncc1
inactive: [1] 17.8 µM | [2] 31.4 µM | [3] 24.7 µM | [4] 21.3 µM | [5] 13.8 µM | [6] 21.1 µM | [7] 36.6 µM | [8] 25.1 µM | [9] 15.9 µM | [10] 31 µM | [11] 30.6 µM | [12] > 10 µM | [13] 23.6 µM | [14] 21.4 µM | [15] 24.6 µM | [16] 53.1 µM | [17] 17.8 µM

Cc1nc(-c2nc(C)c(C(=O)/C=C/c3ccc([N+](=O)[O-])cc3)s2)sc1C(=O)/C=C/c1ccc([N+](=O)[O-])cc1
inactive: [1] > 100 µM | [2] > 100 µM | [3] > 100 µM | [4] > 100 µM | [5] > 100 µM | [6] > 100 µM | [7] > 100 µM | [8] > 100 µM | [9] > 100 µM | [10] > 100 µM | [11] > 100 µM | [12] > 100 µM | [13] > 100 µM | [14] > 100 µM | [15] > 100 µM | [16] > 100 µM | [17] > 100 µM

CC12Oc3ccc4ccccc4c3C1c1c(ccc3ccccc13)O2 (centres undefined)
inactive: [1] > 100 µM | [2] > 100 µM | [3] > 100 µM | [5] 17.1 µM | [6] > 100 µM | [7] > 100 µM | [8] 43.3 µM | [9] > 100 µM | [10] > 100 µM | [11] > 100 µM | [12] > 100 µM | [13] > 100 µM | [14] > 100 µM | [15] > 100 µM | [16] > 100 µM | [17] > 100 µM

COc1ccc(C2[C@H]3C(=O)N(c4ccc(Cc5ccc(N6C(=O)[C@@H]7ON(c8ccccc8)C(c8ccc(OC)cc8)[C@@H]7C6=O)cc5)cc4)C(=O)[C@H]3ON2c2ccccc2)cc1 (some centres undefined)
inactive: [1] > 100 µM | [2] > 100 µM | [3] 87.5 µM | [4] > 100 µM | [5] 49.2 µM | [6] > 100 µM | [7] > 100 µM | [8] > 100 µM | [9] 96.6 µM | [10] > 100 µM | [11] 23.1 µM | [12] > 100 µM | [13] > 100 µM | [14] > 100 µM | [15] > 100 µM | [16] > 100 µM | [17] > 100 µM

O=C1c2c(n(Cc3ccccc3)c(=O)n2Cc2ccccc2)C(=O)N1Cc1ccccc1
inactive: [1] 40.3 µM | [2] 89.1 µM | [3] > 100 µM | [4] > 100 µM | [5] > 100 µM | [6] > 100 µM | [7] 47.9 µM | [8] 64.7 µM | [9] 50.5 µM | [10] 64.1 µM | [11] > 100 µM | [12] 92.7 µM | [13] 65.8 µM | [14] 41.9 µM | [15] > 100 µM | [16] > 100 µM | [17] > 100 µM

Cc1ccc(C2=NN(C)COC2C(F)(F)F)cc1 (centres undefined)
inactive: [1] > 100 µM | [2] > 100 µM | [3] > 100 µM | [4] > 100 µM | [5] > 100 µM | [6] > 100 µM | [7] > 100 µM | [8] 21.2 µM | [9] > 100 µM | [10] > 100 µM | [11] > 100 µM | [12] > 100 µM | [13] > 100 µM | [14] > 100 µM | [15] > 100 µM | [16] > 100 µM | [17] > 100 µM

[N-]=[N+]=N[C@H]1C[C@@H](CO)O[C@H]1n1cnc2c(N)ncnc21
inactive: [1] > 100 µM | [2] > 100 µM | [3] > 100 µM | [4] > 100 µM | [5] > 100 µM | [6] > 100 µM | [7] > 100 µM | [8] > 100 µM | [9] > 100 µM | [10] > 100 µM | [11] > 100 µM | [12] > 100 µM | [13] > 100 µM | [14] > 100 µM | [15] > 100 µM | [17] > 100 µM

From ChEMBL document CHEMBL1201862, “PubChem BioAssay data set” (2004)
